From US10568324B2, “Agricultural and horticultural material, and plant cultivation method which promote coloring in fruit” (AJINOMOTO CO., INC., priority 2015, dated 2020)
Converted amounts (≈) assume the structure as drawn. Read-outs that look alike come from different tables or passages of the source.

Key:
[1] = system: grape cultured cells (VR calluses); assay: Anthocyanin content in grape calluses treated with various amino acids (Reference Example 1(1)); format: cell-based, Vitis vinifera L.; settings: 5 days
Procedure: Cells derived from a European grape cell line (Vitis vinifera L.; RIKEN BioResource Center; VR, management number RPC00003) were subcultured on MS agar medium. The subcultured VR calluses (i.e. cell clusters) were each transferred to MS agar medium containing 5 mM of each amino acid solution, and cultured. As a positive control, 100 μM abscisic acid (ABA) was added, which is a known color-promotor. Five days after the transfer, each callus was freeze-dried and ground, and anthocyanin was extracted with a 1% HCl solution in MeOH.

[2] = system: Cabernet Sauvignon grape plants; assay: Effect of isoleucine on coloring of grape berries, sprinkled on bunches in test farm (Reference Example 1(2)); format: in vivo; settings: 10 mM Ile + 0.1% Applauch BI sprinkled on bunches in veraison period; FIG. 1
Procedure: Cabernet Sauvignon grape plants that had been cultivated in a test farm and had entered into the veraison period were chosen for this experiment. Eight bunches of grapes on each of two grape plants, 16 bunches of grapes in total, were selected for each test group. On each bunch of grapes, about 6.25 mL of 0.1% Applauch BI (Kao, control), 1 g/L of abscisic acid (ABA)+0.1% Applauch BI (positive control), or 10 mM isoleucine (Ile)+0.1% Applauch BI was sprinkled. As samples, 4 bunches for each test group were collected 4 times. Anthocyanin present in the pericarps was extracted with a mixed solution of water and acetone (1:2), and the anthocyanin content was measured in the same manner as described above.

[3] = cited from earlier work

SMILES | Relative content of anthocyanin ([1]; 5 mM amino acid in MS agar medium, relative to positive control 100 μM ABA taken as 100%) [%] | anthocyanin content in pericarps [2] | solubility in water [3] | anthocyanin content of callus (in words) ([1]; 5 mM amino acid, compared among the amino acids of Table 1) | solubility in water ([3]; 20° C.) [mg/mL] | solubility in water ([3]; 50° C.) [mg/mL]
C[C@H](N)C(=O)O [Ala] | 7 | – | – | – | – | –
CC[C@H](C)[C@H](N)C(=O)O [Ile, isoleucine] | – | increased | about 0.3 M | highest anthocyanin content | – | –
CC(C)C[C@H](N)C(=O)O [Leu, leucine] | – | – | about 0.2 M | – | 24 (≈ 183 mM) | 29 (≈ 221 mM)
N[C@@H](Cc1ccccc1)C(=O)O [Phe, phenylalanine] | – | – | about 0.2 M | – | 27 (≈ 163 mM) | 40 (≈ 242 mM)
